Test results: patent US20150105252A1, “SUBSTITUTED PYRAZOLES AS HERBICIDES” (E I DU PONT DE NEMOURS AND COMPANY, priority 2013, published 2015)

Legend:
Conditions in all cases: scale 0 to 100
mustard, wild = test: Test D preemergence; type: in vivo, Sinapis arvensis
From the text: (§1) Seeds of plant species selected from bluegrass (annual bluegrass, Poa annua), blackgrass (Alopecurus myosuroides), canarygrass (littleseed canarygrass, Phalaris minor), chickweed (common chickweed, Stellaria media), galium (catchweed bedstraw, Galium aparine), bromegrass, downy (downy bromegrass, Bromus tectorum), field poppy (Papaver rhoeas), field violet (Viola arvensis), foxtail, green (green foxtail, Setaria viridis), deadnettle (henbit deadnettle, Lamium amplexicaule), ryegrass, Italian (Italian ryegrass, Lolium multiflorum), kochia (Kochia scoparia), lambsquarters (Chenopodium album), oilseed rape (Brassica napus), pigweed (redroot pigweed, Amaranthus retroflexus), chamomile (scentless chamomile, Matricaria inodora), speedwell (bird's-eye speedwell, Veronica persica), barley, spring (spring barley, Hordeum vulgare), wheat, spring (spring wheat, Triticum aestivum), buckwheat, wild (wild buckwheat, Polygonum convolvulus), mustard, wild (wild mustard, Sinapis arvensis), oat, wild (wild oat, Avena fatua), radish, wild (wild radish, Raphanus raphanistrum), windgrass (Apera spica-venti), Russian thistle (Salsola kali), barley, winter (winter barley, Hordeum vulgare), and wheat, winter (winter wheat, Triticum aestivum) were planted into a silt loam soil and treated preemergence with test chemicals formulated in a non-phytotoxic solvent mixture which included a surfactant.
(§2) At the same time, these species were planted in pots containing Redi-Earth® planting medium (Scotts Company, 14111 Scottslawn Road, Marysville, Ohio 43041) comprising spaghnum peat moss, vermiculite, wetting agent and starter nutrients and treated with postemergence applications of the test chemicals formulated in the same manner. Plants ranged in height from 2 to 18 cm (1- to 4-leaf stage). Treated plants and controls were maintained in a controlled growth environment for 14 to 21 days after which time all species were compared to controls and visually evaluated. Plant response ratings, summarized in Table D, are based on a scale of 0 to 100 where 0 is no effect and 100 is complete control. A dash (-) response means no test result.

barley, spring = test: Test D postemergence; type: in vivo, Hordeum vulgare
From the text: as §1, §2

barley, winter = test: Test D postemergence; type: in vivo, Hordeum vulgare
From the text: as §1, §2

field violet = test: Test D preemergence; type: in vivo, Viola arvensis
From the text: as §1, §2

windgrass [1] = test: Test D postemergence; type: in vivo, Apera spica-venti
From the text: as §1, §2

deadnettle [2] = test: Test D postemergence; type: in vivo, Lamium amplexicaule
From the text: as §1, §2

blackgrass = test: Test D preemergence; type: in vivo, Alopecurus myosuroides
From the text: as §1, §2

bluegrass = test: Test D postemergence; type: in vivo, Poa annua
From the text: as §1, §2

buckwheat, wild = test: Test D preemergence; type: in vivo, Polygonum convolvulus
From the text: as §1, §2

windgrass [3] = test: Test D preemergence; type: in vivo, Apera spica-venti
From the text: as §1, §2

bromegrass, downy = test: Test D preemergence; type: in vivo, Bromus tectorum
From the text: as §1, §2

galium = test: Test D preemergence; type: in vivo, Galium aparine
From the text: as §1, §2

field poppy = test: Test D postemergence; type: in vivo, Papaver rhoeas
From the text: as §1, §2

oat, wild = test: Test D postemergence; type: in vivo, Avena fatua
From the text: as §1, §2

pigweed = test: Test D postemergence; type: in vivo, Amaranthus retroflexus
From the text: as §1, §2

deadnettle [4] = test: Test D preemergence; type: in vivo, Lamium amplexicaule
From the text: as §1, §2

SMILES: CCc1cc(C(=O)NCC(F)(F)F)nn1Cc1ccnc(C(F)(F)F)c1 [Compound 78, 5-ethyl-N-(2,2,2-trifluoroethyl)-1-[[(2-trifluoromethyl)-4-pyridinyl]methyl]-1H-pyrazole-3-carboxamide]
- Plant response rating, Mustard, Wild (mustard, wild; 31 g ai/ha): 100
- Plant response rating, Mustard, Wild (mustard, wild; 62 g ai/ha): 100
- Plant response rating, Mustard, Wild (mustard, wild; 125 g ai/ha): 100
- Plant response rating, Mustard, Wild (mustard, wild; 250 g ai/ha): 100
- Barley, Spring plant response rating (barley, spring; Postemergence, 31 g ai/ha): 0
- Barley, Spring plant response rating (barley, spring; Postemergence, 125 g ai/ha): 10
- Barley, Spring plant response rating (barley, spring; Postemergence, 250 g ai/ha): 30
- Barley, Spring plant response rating (barley, spring; postemergence, 62 g ai/ha): 0
- Barley, Winter plant response rating (barley, winter; Postemergence, 31 g ai/ha): 5
- Barley, Winter plant response rating (barley, winter; Postemergence, 125 g ai/ha): 15
- Barley, Winter plant response rating (barley, winter; Postemergence, 250 g ai/ha): 25
- Barley, Winter plant response rating (barley, winter; postemergence, 62 g ai/ha): 10
- Plant response rating, Field Violet (field violet; 31 g ai/ha): 100
- Plant response rating, Field Violet (field violet; 62 g ai/ha): 100
- Plant response rating, Field Violet (field violet; 125 g ai/ha): 100
- Plant response rating, Field Violet (field violet; 250 g ai/ha): 100
- Windgrass plant response rating (windgrass [1]; Postemergence, 31 g ai/ha): 10
- Windgrass plant response rating (windgrass [1]; Postemergence, 125 g ai/ha): 35
- Windgrass plant response rating (windgrass [1]; Postemergence, 250 g ai/ha): 60
- Windgrass plant response rating (windgrass [1]; postemergence, 62 g ai/ha): 20
- Deadnettle plant response rating (deadnettle [2]; Postemergence, 31 g ai/ha): 15
- Deadnettle plant response rating (deadnettle [2]; Postemergence, 125 g ai/ha): 35
- Deadnettle plant response rating (deadnettle [2]; Postemergence, 250 g ai/ha): 60
- Deadnettle plant response rating (deadnettle [2]; postemergence, 62 g ai/ha): 20
- Plant response rating, Blackgrass (blackgrass; 31 g ai/ha): 35
- Plant response rating, Blackgrass (blackgrass; 62 g ai/ha): 70
- Plant response rating, Blackgrass (blackgrass; 125 g ai/ha): 80
- Plant response rating, Blackgrass (blackgrass; 250 g ai/ha): 100
- Bluegrass plant response rating (bluegrass; Postemergence, 31 g ai/ha): 10
- Bluegrass plant response rating (bluegrass; Postemergence, 125 g ai/ha): 15
- Bluegrass plant response rating (bluegrass; Postemergence, 250 g ai/ha): 30
- Bluegrass plant response rating (bluegrass; postemergence, 62 g ai/ha): 10
- Plant response rating, Buckwheat, Wild (buckwheat, wild; 31 g ai/ha): 95
- Plant response rating, Buckwheat, Wild (buckwheat, wild; 62 g ai/ha): 100
- Plant response rating, Buckwheat, Wild (buckwheat, wild; 125 g ai/ha): 100
- Plant response rating, Buckwheat, Wild (buckwheat, wild; 250 g ai/ha): 100
- Plant response rating, Windgrass (windgrass [3]; 31 g ai/ha): 90
- Plant response rating, Windgrass (windgrass [3]; 62 g ai/ha): 100
- Plant response rating, Windgrass (windgrass [3]; 125 g ai/ha): 100
- Plant response rating, Windgrass (windgrass [3]; 250 g ai/ha): 100
- Plant response rating, Bromegrass, Downy (bromegrass, downy; 31 g ai/ha): 10
- Plant response rating, Bromegrass, Downy (bromegrass, downy; 62 g ai/ha): 20
- Plant response rating, Bromegrass, Downy (bromegrass, downy; 125 g ai/ha): 70
- Plant response rating, Bromegrass, Downy (bromegrass, downy; 250 g ai/ha): 75
- Plant response rating, Galium (galium; 31 g ai/ha): 95
- Plant response rating, Galium (galium; 62 g ai/ha): 100
- Plant response rating, Galium (galium; 125 g ai/ha): 100
- Plant response rating, Galium (galium; 250 g ai/ha): 100
- Field Poppy plant response rating (field poppy; Postemergence, 31 g ai/ha): 55
- Field Poppy plant response rating (field poppy; Postemergence, 125 g ai/ha): 70
- Field Poppy plant response rating (field poppy; Postemergence, 250 g ai/ha): 85
- Field Poppy plant response rating (field poppy; postemergence, 62 g ai/ha): 65
- Oat, Wild plant response rating (oat, wild; Postemergence, 31 g ai/ha): 15
- Oat, Wild plant response rating (oat, wild; Postemergence, 125 g ai/ha): 25
- Oat, Wild plant response rating (oat, wild; Postemergence, 250 g ai/ha): 40
- Oat, Wild plant response rating (oat, wild; postemergence, 62 g ai/ha): 20
- Pigweed plant response rating (pigweed; Postemergence, 31 g ai/ha): 70
- Pigweed plant response rating (pigweed; Postemergence, 125 g ai/ha): 80
- Pigweed plant response rating (pigweed; Postemergence, 250 g ai/ha): 85
- Pigweed plant response rating (pigweed; postemergence, 62 g ai/ha): 75
- Plant response rating, Deadnettle (deadnettle [4]; 31 g ai/ha): 10
- Plant response rating, Deadnettle (deadnettle [4]; 62 g ai/ha): 10
- Plant response rating, Deadnettle (deadnettle [4]; 125 g ai/ha): 25
- Plant response rating, Deadnettle (deadnettle [4]; 250 g ai/ha): 100

SMILES: CCc1cc(C(=O)NC(C)C)nn1Cc1ccnc(C(F)(F)F)c1 [Compound 103]
- Plant response rating, Mustard, Wild (mustard, wild; 31 g ai/ha): 55
- Plant response rating, Mustard, Wild (mustard, wild; 62 g ai/ha): 60
- Plant response rating, Mustard, Wild (mustard, wild; 125 g ai/ha): 75
- Plant response rating, Mustard, Wild (mustard, wild; 250 g ai/ha): 100
- Barley, Spring plant response rating (barley, spring; Postemergence, 31 g ai/ha): 0
- Barley, Spring plant response rating (barley, spring; Postemergence, 125 g ai/ha): 10
- Barley, Spring plant response rating (barley, spring; Postemergence, 250 g ai/ha): 15
- Barley, Spring plant response rating (barley, spring; postemergence, 62 g ai/ha): 0
- Barley, Winter plant response rating (barley, winter; Postemergence, 31 g ai/ha): 0
- Barley, Winter plant response rating (barley, winter; Postemergence, 125 g ai/ha): 5
- Barley, Winter plant response rating (barley, winter; Postemergence, 250 g ai/ha): 15
- Barley, Winter plant response rating (barley, winter; postemergence, 62 g ai/ha): 5
- Plant response rating, Field Violet (field violet; 31 g ai/ha): 95
- Plant response rating, Field Violet (field violet; 62 g ai/ha): 100
- Plant response rating, Field Violet (field violet; 125 g ai/ha): 100
- Plant response rating, Field Violet (field violet; 250 g ai/ha): 100
- Windgrass plant response rating (windgrass [1]; Postemergence, 31 g ai/ha): 10
- Windgrass plant response rating (windgrass [1]; Postemergence, 125 g ai/ha): 25
- Windgrass plant response rating (windgrass [1]; Postemergence, 250 g ai/ha): 35
- Windgrass plant response rating (windgrass [1]; postemergence, 62 g ai/ha): 20
- Deadnettle plant response rating (deadnettle [2]; Postemergence, 31 g ai/ha): 20
- Deadnettle plant response rating (deadnettle [2]; Postemergence, 125 g ai/ha): 25
- Deadnettle plant response rating (deadnettle [2]; Postemergence, 250 g ai/ha): 30
- Deadnettle plant response rating (deadnettle [2]; postemergence, 62 g ai/ha): 25
- Plant response rating, Blackgrass (blackgrass; 62 g ai/ha): 50
- Plant response rating, Blackgrass (blackgrass; 125 g ai/ha): 85
- Plant response rating, Blackgrass (blackgrass; 250 g ai/ha): 100
- Bluegrass plant response rating (bluegrass; Postemergence, 31 g ai/ha): 10
- Bluegrass plant response rating (bluegrass; Postemergence, 125 g ai/ha): 20
- Bluegrass plant response rating (bluegrass; Postemergence, 250 g ai/ha): 30
- Bluegrass plant response rating (bluegrass; postemergence, 62 g ai/ha): 25
- Plant response rating, Buckwheat, Wild (buckwheat, wild; 31 g ai/ha): 75
- Plant response rating, Buckwheat, Wild (buckwheat, wild; 62 g ai/ha): 100
- Plant response rating, Buckwheat, Wild (buckwheat, wild; 125 g ai/ha): 100
- Plant response rating, Buckwheat, Wild (buckwheat, wild; 250 g ai/ha): 100
- Plant response rating, Windgrass (windgrass [3]; 31 g ai/ha): 15
- Plant response rating, Windgrass (windgrass [3]; 62 g ai/ha): 80
- Plant response rating, Windgrass (windgrass [3]; 125 g ai/ha): 100
- Plant response rating, Windgrass (windgrass [3]; 250 g ai/ha): 100
- Plant response rating, Bromegrass, Downy (bromegrass, downy; 31 g ai/ha): 5
- Plant response rating, Bromegrass, Downy (bromegrass, downy; 62 g ai/ha): 10
- Plant response rating, Bromegrass, Downy (bromegrass, downy; 125 g ai/ha): 40
- Plant response rating, Bromegrass, Downy (bromegrass, downy; 250 g ai/ha): 85
- Plant response rating, Galium (galium; 31 g ai/ha): 50
- Plant response rating, Galium (galium; 62 g ai/ha): 100
- Plant response rating, Galium (galium; 125 g ai/ha): 100
- Plant response rating, Galium (galium; 250 g ai/ha): 100
- Field Poppy plant response rating (field poppy; Postemergence, 31 g ai/ha): 40
- Field Poppy plant response rating (field poppy; Postemergence, 125 g ai/ha): 60
- Field Poppy plant response rating (field poppy; Postemergence, 250 g ai/ha): 70
- Field Poppy plant response rating (field poppy; postemergence, 62 g ai/ha): 55
- Oat, Wild plant response rating (oat, wild; Postemergence, 31 g ai/ha): 10
- Oat, Wild plant response rating (oat, wild; Postemergence, 125 g ai/ha): 20
- Oat, Wild plant response rating (oat, wild; Postemergence, 250 g ai/ha): 25
- Oat, Wild plant response rating (oat, wild; postemergence, 62 g ai/ha): 15
- Pigweed plant response rating (pigweed; Postemergence, 31 g ai/ha): 70
- Pigweed plant response rating (pigweed; Postemergence, 125 g ai/ha): 65
- Pigweed plant response rating (pigweed; Postemergence, 250 g ai/ha): 70
- Pigweed plant response rating (pigweed; postemergence, 62 g ai/ha): 60
- Plant response rating, Deadnettle (deadnettle [4]; 31 g ai/ha): 5
- Plant response rating, Deadnettle (deadnettle [4]; 62 g ai/ha): 15
- Plant response rating, Deadnettle (deadnettle [4]; 125 g ai/ha): 30
- Plant response rating, Deadnettle (deadnettle [4]; 250 g ai/ha): 30
